“And” between values parts separate entries of the source, which are not always exact repeats. Equal entries are not always repeated.
What was measured:
chiRyR-I4657M/G4819E [1] = target: T1, chiRyR-I4657M/G4819E (Oryctolagus cuniculus, UniProt P11716, C4657M/F4564Y/G4819E/L4792S/R4563K); assay: cell-based; set-up: species or system rabbit
chiRyR [2] = target: T2, chiRyR (Oryctolagus cuniculus, UniProt P11716, C4657I/F4564Y/L4792S/R4563K); assay: biochemical; format: biochemical, rabbit
rRyR1 L4792S = target: T3, rRyR1 L4792S (Oryctolagus cuniculus, UniProt P11716, L4792S); assay: time-lapse [Ca2+]ER fluorescence assay, HEK293 cells; format: cell-based, rabbit; details: n = 3
T3 construct: expressed in transfected cells

rRyR1 R4563K = target: T4, rRyR1 R4563K (Oryctolagus cuniculus, UniProt P11716, R4563K); assay: as above; format: cell-based, rabbit; details: n = 3
T4 construct: expressed in transfected cells

rRyR1 = rRyR1 (Oryctolagus cuniculus, UniProt P11716); assay: as above; format: cell-based, rabbit
Sf RyR = Sf RyR (Spodoptera frugiperda, UniProt A0A4P8L6R5); assay: as above; format: cell-based
chiRyR-I4657M/G4819E [3] = target: T1, chiRyR-I4657M/G4819E; assay: biochemical; format: biochemical, rabbit
chiRyR [4] = target: T2, chiRyR; assay: cell-based; set-up: species or system rabbit
rRyR1 C4657I = target: T5, rRyR1 C4657I (Oryctolagus cuniculus, UniProt P11716, C4657I); assay: time-lapse [Ca2+]ER fluorescence assay, HEK293 cells; format: cell-based, rabbit; details: n = 3
T5 construct: expressed in transfected cells

[5] = system: Drosophila melanogaster RyR G4915E; assay: Bioassay of gene-edited Drosophila melanogaster (feeding, mortality after 24 h); format: in vivo; set-up: key to LD50: AA.: All alive
Spodoptera frugiperda = system: Spodoptera frugiperda; set-up: method as in PMID 31157506; details: in vivo; cited from earlier work
[6] = system: diamondback moth (Plutella xylostella); details: in vivo; cited from earlier work
Sf RyR_I4734M/G4891E = Sf RyR_I4734M/G4891E (Spodoptera frugiperda, UniProt A0A4P8L6R5, G4891E/I4734M); assay: cell-based
[7] = system: Drosophila melanogaster RyR M4758I; assay: Bioassay of gene-edited Drosophila melanogaster (feeding, mortality after 24 h); format: in vivo; details: 24 h feeding, n = 30

**Q.** What does the source list for `Cc1cc(C(F)(C(F)(F)F)C(F)(F)F)ccc1NC(=O)c1cccc(I)c1C(=O)NC(C)(C)CS(C)(=O)=O` [FLU, flubendiamide]?
**A.** F/F0 (chiRyR-I4657M/G4819E [1]; FLU 1e-5 uM): 0.9575 and 0.97 and 0.9884; F/F0 (chiRyR-I4657M/G4819E [1]; FLU 0.1 uM): 0.9705 and 0.977 and 1.0074; F/F0 (chiRyR-I4657M/G4819E [1]; FLU 0.5 uM): 0.9668 and 0.9819 and 0.9464; F/F0 (chiRyR-I4657M/G4819E [1]; FLU 1 uM): 0.9823 and 0.9988 and 0.9262; F/F0 (chiRyR-I4657M/G4819E [1]; FLU 10 uM): 0.9522 and 0.929 and 0.9507; F/F0 (chiRyR-I4657M/G4819E [1]; FLU 50 uM): 0.9714 and 0.9397 and 0.895; F/F0 (chiRyR-I4657M/G4819E [1]; FLU 100 uM): 0.9721 and 0.9871 and 0.9807; F/F0 (chiRyR-I4657M/G4819E [1]; FLU 200 uM): 0.9521 and 0.9361 and 0.9719; effect of the double mutation on activity (chiRyR-I4657M/G4819E [1]; time-lapse assay): almost completely abolished; EC50 (chiRyR [2]): 0.004 ± 0.0014 µM; [3H]ryanodine binding (B/Bmax) (chiRyR [2]; FLU 0.010 uM): 0.258 and 0.168 and 0.293 and 0.246; [3H]ryanodine binding (B/Bmax) (chiRyR [2]; FLU 0.100 uM): 0.203 and 0.262 and 0.293 and 0.332; [3H]ryanodine binding (B/Bmax) (chiRyR [2]; FLU 1.000 uM): 0.230 and 0.187 and 0.324; [3H]ryanodine binding (B/Bmax) (chiRyR [2]; FLU 10.000 uM): 0.281 and 0.305 and 0.277 and 0.254; [3H]ryanodine binding (B/Bmax) (chiRyR [2]; FLU 100.000 uM): 0.242 and 0.340 and 0.234 and 0.262; EC50 (rRyR1 L4792S): 0.209 µM; EC50 (rRyR1 R4563K): 3.9 µM; EC50 (rRyR1): 4.5 µM; F/F0 (rRyR1; FLU 0.01 uM): 0.9514 and 0.951 and 0.9574; F/F0 (rRyR1; FLU 0.3 uM): 0.9294 and 0.929 and 0.9697; F/F0 (rRyR1; FLU 1 uM): 0.9591 and 0.9606 and 0.9686; F/F0 (rRyR1; FLU 3 uM): 0.9637 and 0.9616 and 0.9316; F/F0 (rRyR1; FLU 10 uM): 0.9738 and 0.9803 and 0.9687; F/F0 (rRyR1; FLU 30 uM): 0.9272 and 0.9023 and 0.8951; F/F0 (rRyR1; FLU 100 uM): 0.8351 and 0.825 and 0.8009; F/F0 (rRyR1; FLU 150 uM): 0.7879 and 0.7717 and 0.7578; F/F0 (Sf RyR; FLU 1e-5 uM): 0.9517 and 0.959 and 0.9803 and 0.9606 and 0.9626 and 0.9095; F/F0 (Sf RyR; FLU 0.0001 uM): 0.9669 and 0.9979 and 0.9587; F/F0 (Sf RyR; FLU 0.001 uM): 0.9934 and 1.004 and 1.015 and 1.0081 and 0.9724 and 0.9466; F/F0 (Sf RyR; FLU 0.005 uM): 0.9953 and 0.9503 and 0.9362; F/F0 (Sf RyR; FLU 0.01 uM): 0.964 and 0.9628 and 0.9439 and 0.9365 and 0.909 and 0.8287; F/F0 (Sf RyR; FLU 0.1 uM): 0.6874 and 0.7084 and 0.7834 and 0.606 and 0.5494 and 0.4561; F/F0 (Sf RyR; FLU 0.3 uM): 0.3286 and 0.3161 and 0.2878; F/F0 (Sf RyR; FLU 0.5 uM): 0.3948 and 0.4026 and 0.4259 and 0.3563 and 0.3618 and 0.3874; F/F0 (Sf RyR; FLU 1 uM): 0.4531 and 0.5278 and 0.593 and 0.346 and 0.3891 and 0.3741; F/F0 (Sf RyR; FLU 3 uM): 0.282 and 0.3083 and 0.312; F/F0 (Sf RyR; FLU 30 uM): 0.2907 and 0.2708 and 0.2786; F/F0 (Sf RyR; FLU 50 uM): 0.5223 and 0.4644 and 0.4746 and 0.282 and 0.2723 and 0.2725; F/F0 (Sf RyR; FLU 100 uM): 0.3008 and 0.2711 and 0.266; F/F0 (Sf RyR; FLU 150 uM): 0.2772 and 0.2807 and 0.3032; F/F0 (Sf RyR; FLU 200 uM): 0.2827 and 0.3427 and 0.3531; EC50 (Sf RyR; n = 3, read-out: EC50): 0.0593 µM; [3H]ryanodine binding (B/Bmax) (chiRyR-I4657M/G4819E [3]; FLU 10.000 uM): 0.017 and 0.021 and 0.023 and 0.012; effect of the double mutation on activity (chiRyR-I4657M/G4819E [3]; [3H]ryanodine binding assay): almost completely abolished; EC50 (chiRyR [4]): 0.0251 µM; F/F0 (chiRyR [4]; FLU 1e-5 uM): 0.9549 and 0.9506 and 0.9676; F/F0 (chiRyR [4]; FLU 0.0001 uM): 0.9787 and 0.9683 and 0.9464; F/F0 (chiRyR [4]; FLU 0.01 uM): 0.8614 and 0.8526 and 0.8697; F/F0 (chiRyR [4]; FLU 0.1 uM): 0.4361 and 0.3436; F/F0 (chiRyR [4]; FLU 1 uM): 0.3549 and 0.3294 and 0.3747; F/F0 (chiRyR [4]; FLU 10 uM): 0.336 and 0.3416 and 0.3434; F/F0 (chiRyR [4]; FLU 50 uM): 0.3259 and 0.3223 and 0.3318; F/F0 (chiRyR [4]; FLU 100 uM): 0.36 and 0.3376 and 0.3503; EC50 (rRyR1 C4657I): 8.9 µM; LD50 ([5]; 24 h feeding, n = 30): AA.; lethality ([5]; in vivo): can no longer kill; fold decreased sensitivity (Spodoptera frugiperda): 5,400 fold; fold decrease in sensitivity [6]: > 200 fold; EC50 (Sf RyR_I4734M/G4891E): > 300 µM; F/F0 (Sf RyR_I4734M/G4891E; FLU 0.1 uM): 0.9354 and 1.022 and 1.001; F/F0 (Sf RyR_I4734M/G4891E; FLU 1 uM): 1.08 and 0.9898 and 1.013; F/F0 (Sf RyR_I4734M/G4891E; FLU 10 uM): 0.9775 and 0.9916 and 0.9858; F/F0 (Sf RyR_I4734M/G4891E; FLU 50 uM): 0.9682 and 0.9415 and 0.9568; F/F0 (Sf RyR_I4734M/G4891E; FLU 100 uM): 0.9687 and 0.9673 and 0.985; F/F0 (Sf RyR_I4734M/G4891E; FLU 150 uM): 1.01 and 0.9761 and 1.006; F/F0 (Sf RyR_I4734M/G4891E; FLU 200 uM): 1.016 and 0.9681 and 1.012; LD50 [7]: 10.4 µM

— publication PMC11491487 (Nature Communications, 2024)
